Laboratory results published in PubChem BioAssay (NCI).
Several values for one entry are separate records, joined by “and”; a condition that tells them apart may be missing. Identical values can stand only once.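 Interpolation was linear, between the two tested concentrations surrounding the appropriate level; five concentrations were tested over 48 hours in 96-well plates. At the GI50, growth is halved. TGI: concentration producing complete growth inhibition.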

How the values were obtained:
Assay in all cases: NCI-60 cell line screen, 48 h
OVCAR-4 ovarian = test system: OVCAR-4 ovarian
KM20L2 colon = test system: KM20L2 colon
DLD-1 colon = test system: DLD-1 colon
LXFL 529 NSCLC = test system: LXFL 529 NSCLC
UACC-62 melanoma = test system: UACC-62 melanoma
A498 renal = test system: A498 renal
SR leukemia = test system: SR leukemia
SNB-78 CNS = test system: SNB-78 CNS
MDA-MB-435 = test system: MDA-MB-435
MCF7 breast = test system: MCF7 breast

Structure (SMILES) | TGI (OVCAR-4 ovarian) | TGI (KM20L2 colon) | TGI (DLD-1 colon) | TGI (LXFL 529 NSCLC) [µM] | TGI (UACC-62 melanoma) | TGI (A498 renal) | TGI (SR leukemia) | TGI (SNB-78 CNS) [µM] | GI50 (OVCAR-4 ovarian) [µM] | GI50 (KM20L2 colon) [µM] | TGI (MDA-MB-435) [µM] | TGI (MCF7 breast) [µM] | GI50 (SR leukemia) [µM] | GI50 (UACC-62 melanoma) [µM] | GI50 (MDA-MB-435) [µM] | GI50 (MCF7 breast) [µM] | GI50 (A498 renal) [µM] | GI50 (DLD-1 colon) [µM] | GI50 (LXFL 529 NSCLC) [µM]
O=c1[nH]c2cc(Cl)ccc2nc1/C(=N\O)C(O)c1cccc([N+](=O)[O-])c1 (configuration not stated) | > 100 µM | > 100 µM | > 100 µM | > 100 | > 100 µM |  |  |  |  |  |  |  |  |  |  |  |  |  | 
CN1C(=Nc2ccccc2)SC1=Nc1ccccc1 | > 100 µM |  | > 100 µM | > 100 | > 100 µM | > 100 µM | > 100 µM | > 100 |  |  |  |  |  |  |  |  |  |  | 
COc1ccc2n[se]nc2c1 | > 100 µM | > 100 µM | > 100 µM | > 100 | > 100 µM |  |  | > 100 |  |  |  |  |  |  |  |  |  |  | 
Cc1cc(=O)n(-c2ccccc2C)c(C)n1 | > 100 µM | > 100 µM | > 100 µM | > 100 | > 100 µM | > 100 µM |  | > 100 |  |  |  |  |  |  |  |  |  |  | 
Clc1ccc(C2SCc3nc4ccccc4n32)c(Cl)c1 (configuration not stated) |  | 36.3 µM | 30.3 µM | 24.5 | 32 µM | 28.4 µM | 39.1 µM |  |  |  |  |  |  |  |  |  |  |  | 
CCc1cc(C(=O)OC)cn1C(=N)c1ccc(Cl)cc1 | > 100 µM | > 100 µM | > 100 µM | > 100 | > 100 µM | > 100 µM |  | > 100 |  |  |  |  |  |  |  |  |  |  | 
COc1cc(C[C@H]2c3cc(OC)c(OC)cc3CCN2C)c(Oc2cc3c(cc2OC)-c2c(OC)c(OC)cc4c2[C@H](C3)N(C)CC4)cc1OC | 23.9 µM and 28.6 µM | 13.5 µM and 7.75 µM | 40.8 µM and 28.3 µM | 23.6 | 13.4 µM and 34.2 µM | 25.1 µM and 21.2 µM | 28.6 µM and 7.84 µM |  | 14.6 | 2.32 | 12.5 | 27.8 | 2.44 | 19 |  |  |  |  | 
O=C(O)C(SC(=S)c1ccc(C(=S)SC(C(=O)O)c2ccccc2)cc1)c1ccccc1 (configuration not stated) |  |  | > 100 µM | > 100 | > 100 µM | > 100 µM | > 100 µM | > 100 |  |  |  |  |  |  |  |  |  |  | 
COc1c(C)c2c(c(O)c1C/C=C(\C)CCC(=O)O)C(=O)OC2 | > 100 µM |  | > 100 µM | > 100 | > 100 µM | > 100 µM | > 100 µM |  | 0.776 |  | > 100 | > 100 | 0.158 | 0.444 | 0.32 | 0.18 | 0.42 |  | 
COC(=O)N/N=C(\Cc1ccccc1)CN(C)C |  | > 100 µM | > 100 µM | > 100 | > 100 µM | > 100 µM |  | > 100 |  |  |  |  |  |  |  |  |  |  | 
Cn1cc(C(=O)NCCC(=N)N)cc1NC(=O)C1=[N+](C)C=C(NC(=O)c2cccc(C(=O)NC3=CC(C(=O)Nc4cc(C(=O)NCCC(=N)N)cn4C)=[N+](C)C3)c2)C1 | > 100 µM | > 100 µM | > 100 µM | > 100 | > 100 µM | > 100 µM | > 100 µM |  |  |  |  |  |  |  |  |  |  |  | 
COc1cc2c(c(OC)c1OC)-c1ccc(SC)c(=O)cc1C(CO)C2 (configuration not stated) | > 100 µM |  |  | > 100 | 15.7 µM |  | 23.8 µM |  | < 0.01 | < 0.01 |  |  | < 0.01 | < 0.01 |  |  | < 0.01 | < 0.01 | < 0.01
COc1cc(/C=C2/C(=O)N(C(=O)OCC(C)C)C(Cc3cc(OC)c(OC)c(C)c3OC)C(=O)N2Cc2ccccc2)c(OC)c(C)c1OC (configuration not stated) | > 100 µM | > 100 µM | > 100 µM | > 100 | > 100 µM | > 100 µM | > 100 µM |  |  |  |  |  |  |  |  |  |  |  | 
CC(=O)CC(=O)OC1CC(C)CCC1C(C)C (configuration not stated) | > 100 µM |  | > 100 µM | > 100 | > 100 µM | > 100 µM |  | > 100 |  |  |  |  |  |  |  |  |  |  | 
CCCCOC(=O)C1C2CCC(O2)C1C(=O)OCCCC (configuration not stated) | > 100 µM | > 81.2 µM | > 87.5 µM |  | > 100 µM | > 100 µM |  | > 100 |  |  |  |  |  |  |  |  |  |  | 
Oc1c(C(Nc2cccc3cccnc23)c2ccccc2)ccc2cccnc12 (configuration not stated) | > 100 µM | > 100 µM |  | > 100 | > 100 µM | 66.6 µM | 10.4 µM |  |  |  |  |  |  |  |  |  |  |  | 
Fc1ccc2c(c1)C1=NN(c3ccccc3)C(F)C1CO2 (configuration not stated) | 17.4 µM |  |  |  | 14 µM | 21 µM | > 50 µM |  | 7.72 |  | 15.9 | > 50 | 25.7 | 6.43 | 6.7 | 9.41 | 11.4 |  | 
COc1cc2ccc(/C=C\[N+](=O)[O-])cc2cc1OC | 7.56 µM |  |  |  | 21.7 µM | 29.1 µM | 5.28 µM |  |  |  | 7.63 | 7.06 |  |  |  |  |  |  | 
O=C(CCCCCCCCC(=O)N/N=C\c1ccccc1O)N/N=C\c1ccccc1O | > 100 µM |  |  |  | 5.54 µM | 26.9 µM | 12.9 µM |  | 0.33 |  | > 100 | > 100 | 0.16 | 0.331 | 0.704 | 1.99 | 3.1 |  | 
C#Cc1c(F)ccc2cc(O)cc(-c3ncc4c(N5CC6CCC(C5)N6)nc(OC[C@@]56CCCN5C[C@H](F)C6)nc4c3F)c12 | 37.1 µM |  |  |  | 30.5 µM | 34.2 µM | > 100 µM |  | 16.8 |  | 27.3 | 24 | 6.53 | 16.6 | 13.6 | 8.48 | 15.7 |  | 
